Assay results taken from ChEMBL document CHEMBL1158852, “A new sesquiterpene ester from Celastrus orbiculatus reversing multidrug resistance in cancer cells” (J Nat Prod, 1998).

What was measured:
[1] = Cytotoxicity against human KB-3-1 cells by SRB assay; format: functional, cell-based
[2] = Cytotoxicity against drug-resistant human KBV1 cells by SRB assay; format: functional, cell-based; conditions: KB-V1
[3] = Cytotoxicity against drug-resistant human KBV1 cells in presence of 0.1 uM Vinblastine by SRB assay; format: functional, cell-based; conditions: KB-V1
[4] = test system: MCF7; test: Cytotoxicity against human MCF7 cells by SRB assay; format: functional, cell-based
[5] = Cytotoxicity against drug-resistant human MCF7/ADR cells by SRB assay; format: functional, cell-based; conditions: NCI/ADR-RES
[6] = Cytotoxicity against drug-resistant human MCF7/ADR cells in presence of 10 uM Adriamycin by SRB assay; format: functional, cell-based; conditions: NCI/ADR-RES
[7] = test system: SNB-19; test: Cytotoxicity against human SNB19 cells by SRB assay; format: functional, cell-based
[8] = test system: SK-OV-3; test: Cytotoxicity against human SKOV3 cells by SRB assay; format: functional, cell-based
[9] = test system: NCI-H23; test: Cytotoxicity against human NCI-H23 cells by SRB assay; format: functional, cell-based
[10] = test system: UACC-62; test: Cytotoxicity against human UACC62 cells by SRB assay; format: functional, cell-based
[11] = test system: KM12; test: Cytotoxicity against human KM12 cells by SRB assay; format: functional, cell-based
[12] = Cytotoxicity against human MOLT cells by SRB assay; format: functional, cell-based
[13] = test system: KBV1; test: Inhibition of P-gp-mediated multidrug resistance assessed as ratio of Adriamycin IC50 for drug-resistant human KBV1 cells to drug-sensitive human KB-3-1 cells at 3 uM; format: cell-based
[14] = test system: KBV1; test: Inhibition of P-gp-mediated multidrug resistance assessed as ratio of Vinblastine IC50 for drug-resistant human KBV1 cells to drug-sensitive human KB-3-1 cells at 3 uM; format: cell-based
[15] = test system: KBV1; test: Inhibition of P-gp-mediated multidrug resistance assessed as ratio of Paclitaxel IC50 for drug-resistant human KBV1 cells to drug-sensitive human KB-3-1 cells at 3 uM; format: cell-based

| SMILES | IC50 [1] | IC50 [2] | IC50 [3] | IC50 [4] | IC50 [5] | IC50 [6] | IC50 [7] | IC50 [8] | IC50 [9] | IC50 [10] | IC50 [11] | IC50 [12] | Ratio IC50 [13] | Ratio IC50 [14] | Ratio IC50 [15] |
| --- | --- | --- | --- | --- | --- | --- | --- | --- | --- | --- | --- | --- | --- | --- | --- |
| CC(=O)O[C@H]1CC[C@@H](C)[C@]23OC(C)(C)[C@H](C[C@H](OC(=O)c4ccccc4)[C@]12C)[C@H]3OC(=O)c1ccccc1 | 9.26 µM | 13 µM | 1360 nM | 10.8 µM | 14.4 µM | 1390 nM | 18.3 µM | 19.3 µM | 16.8 µM | 12.9 µM | 14.9 µM | 3.05 µM | 98.8 | 63.9 | 37.1 |
| CC(=O)O[C@H]1C[C@@H](C)[C@]23OC(C)(C)[C@H](C[C@H](OC(=O)c4ccccc4)[C@]2(C)[C@H]1OC(C)=O)[C@H]3OC(=O)c1ccccc1 [ORBICULIN A] | 49 µM | 64.9 µM | 800 nM | 53.2 µM | 61.9 µM | 1150 nM | 40.8 µM | 48.4 µM | 41.9 µM | 38.8 µM | 38.6 µM | 7.33 µM | – | – | – |
